Structures can show the parent of a compound that is named as a salt.
biological target: T1, G9a (Homo sapiens, UniProt Q96KQ7); experiment: G9a AlphaLISA enzymatic activity assay; type: biochemical; conditions: 0.15 nM G9a, 15 uM S-adenosyl-methionine, 100 nM biotinylated histone 3 peptide (1-21), 1 hour room temperature
T1 sequence (Q96KQ7 1-1210): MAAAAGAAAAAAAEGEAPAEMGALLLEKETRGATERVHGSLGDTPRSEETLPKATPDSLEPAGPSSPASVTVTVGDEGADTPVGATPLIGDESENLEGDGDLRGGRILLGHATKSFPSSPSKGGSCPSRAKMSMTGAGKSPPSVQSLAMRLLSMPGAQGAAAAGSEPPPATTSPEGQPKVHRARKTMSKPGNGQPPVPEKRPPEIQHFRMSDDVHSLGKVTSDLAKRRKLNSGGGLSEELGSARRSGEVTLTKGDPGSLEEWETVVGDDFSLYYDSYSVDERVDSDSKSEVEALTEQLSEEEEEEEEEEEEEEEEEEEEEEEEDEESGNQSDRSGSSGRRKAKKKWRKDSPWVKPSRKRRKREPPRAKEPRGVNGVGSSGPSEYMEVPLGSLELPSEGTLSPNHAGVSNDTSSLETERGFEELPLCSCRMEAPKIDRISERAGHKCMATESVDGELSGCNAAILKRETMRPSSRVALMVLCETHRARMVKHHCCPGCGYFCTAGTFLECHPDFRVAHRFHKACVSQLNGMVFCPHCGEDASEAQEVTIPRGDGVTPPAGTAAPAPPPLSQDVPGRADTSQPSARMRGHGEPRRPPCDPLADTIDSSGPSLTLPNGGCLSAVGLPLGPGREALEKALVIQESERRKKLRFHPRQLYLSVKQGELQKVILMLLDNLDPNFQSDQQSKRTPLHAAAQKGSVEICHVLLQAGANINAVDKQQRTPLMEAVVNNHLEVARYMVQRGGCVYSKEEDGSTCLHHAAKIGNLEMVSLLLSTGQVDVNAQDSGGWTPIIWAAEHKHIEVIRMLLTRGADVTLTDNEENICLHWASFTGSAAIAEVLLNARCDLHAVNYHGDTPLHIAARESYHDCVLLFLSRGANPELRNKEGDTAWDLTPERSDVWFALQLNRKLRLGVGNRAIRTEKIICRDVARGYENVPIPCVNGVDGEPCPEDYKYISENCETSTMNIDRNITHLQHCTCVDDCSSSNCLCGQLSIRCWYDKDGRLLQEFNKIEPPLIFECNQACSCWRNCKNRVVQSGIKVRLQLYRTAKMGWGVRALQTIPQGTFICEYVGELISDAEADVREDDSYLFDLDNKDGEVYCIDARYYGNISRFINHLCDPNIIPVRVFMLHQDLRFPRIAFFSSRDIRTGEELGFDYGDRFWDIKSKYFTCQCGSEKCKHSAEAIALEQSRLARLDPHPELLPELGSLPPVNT
Description: The G9a AlphaLISA assay was used to detect the methyl modifications of a biotinylated histone H3 peptide by the compounds. These modifications are done by the histone methyl transferase activity of the G9a enzyme. The assay consists of reading a chemiluminescent signal at 615 nm; this signal is generated by a laser excitation at 680 nm that transfers a reactive singlet oxygen between the donor beads and acceptor beads. Donor beads are streptavidin conjugated and bind to the biotin on the peptide. Acceptor beads are conjugated with an antibody that recognizes the specific G9a methyl mark on the peptide. If there is a methyl mark on the peptide, the acceptor beads will bind to the peptide. Upon binding, the acceptor beads will be in close proximity (<200 nm) of the donor beads and when the donor beads are excited, the transfer of the oxygen can occur and a strong signal will be generated. If there is no methyl mark, the interaction between beads will not occur and signal will be at background levels.
For the assay, the following buffer was used to set up reactions: 50 mM Tris-HCl pH9, 50 mM NaCl, 0.01% Tween-20 and 1 mM DTT (added fresh prior to starting the reactions). The assay is set up by adding a final concentration of 0.15 nM G9a, 15 uM S-adenosyl-methionine and, 100 nM biotinylated histone 3 peptide (1-21). The reaction is incubated at room temperature for 1 hour, and subsequently quenched by the addition of the acceptor beads (anti-H3k9me2 AlphaLISA acceptor beads, PerkinElmer #AL117) at a final concentration of 20 ug/mL. The acceptor beads are incubated for 1 hour. After 1 hour, the donor beads are added at a final concentration of 20 ug/mL (Alpha Streptavidin donor beads, PerkinElmer #6760002). Donor beads are incubated for 0.5 hours. Both donor and acceptor beads are resuspended in AlphaLISA 5X Epigenetics Buffer 1 Kit (PerkinElmer #AL008) prior to addition to the reaction. All manipulations and incubations with the donor and acceptor beads are done in subdued light. Signal is detected in an EnVision plate reader in Alpha mode (see ACS Med Chem Lett. 2014 Jan. 2; 5(2):205-9. doi: 10.1021/m1400496h. eCollection 2014. Discovery and development of potent and selective inhibitors of histone methyltransferase g9a.)
Percent inhibition was calculated for each compound dilution and the concentration that produced 50% inhibition was calculated. This value is presented as the IC50.

Q: With `COc1cc2c(NC3CC(=O)N(C4CCC4)C3)c3ccccc3nc2cc1OCCCN1CCCC1` (centres unmarked) [Entry 87, 1-cyclobutyl-4-({2-methoxy-3-[3-(pyrrolidin-1-yl)propoxy]acridin-9-yl}amino)pyrrolidin-2-one trifluoroacetate] as the compound, how does the IC50 read?
A: 18.5 nM

Q: How did the IC50 turn out when `COc1cc2c(NCC3COC3)c3c(nc2cc1OCCCN1CCCC1)CCC3` [Entry 39, 7-methoxy-N-[(oxetan-3-yl)methyl]-6-[3-(pyrrolidin-1-yl)propoxy]-1H,2H,3H-cyclopenta[b]quinolin-9-amine formate] was run?
A: 20 nM

Q: How did the IC50 turn out when `COc1cc2c(NC3CCOCC3)c3ccccc3nc2cc1OCCCN1CCCC1` [Entry 3, 2-methoxy-N-(oxan-4-yl)-3-[3-(pyrrolidin-1-yl)propoxy]-acridin-9-amine trifluoroacetate] was run?
A: 4.4 nM

Q: Which IC50 does the source give for `COc1cc2c(NC3CC(OC)C3)c3c(nc2cc1OCCCN1CCCC1)CCC3` (centres unmarked) [Entry 56, 7-methoxy-N-(3-methoxycyclobutyl)-6-[3-(pyrrolidin-1-yl)propoxy]-1H,2H,3H-cyclopenta[b]quinolin-9-amine formate] here?
A: 16 nM

Q: For `COc1cc2c(NCCC#N)c3ccccc3nc2cc1OCCCN1CCCC1` [Entry 98, 3-({2-methoxy-3-[3-(pyrrolidin-1-yl)propoxy]acridin-9-yl}amino)propanenitrile trifluoroacetate], which IC50 is on record?
A: 6.8 nM

Q: For `COc1cc2c(NCC3CC3)c3c(nc2cc1OCCCN1CCCC1)CCC3` [Entry 32, N-(cyclopropylmethyl)-7-methoxy-6-[3-(pyrrolidin-1-yl)propoxy]-1H,2H,3H-cyclopenta[b]quinolin-9-amine formate], which IC50 is on record?
A: 14 nM

Q: For `COc1cc2c(NC3CC(C)OC(C)C3)c3c(nc2cc1OCCCN1CCCC1)CCC3` (centres unmarked) [Entry 53, N-(2,6-dimethyloxan-4-yl)-7-methoxy-6-[3-(pyrrolidin-1-yl)propoxy]-1H,2H,3H-cyclopenta[b]quinolin-9-amine formate], which IC50 is on record?
A: 21.6 nM

Q: `CNc1c2ccccc2nc2cc(OCCCN(C)C)c(OC)cc12` [Entry 119, 3-[3-(dimethylamino)propoxy]-2-methoxy-N-methylacridin-9-amine trifluoroacetate] was tested. Which IC50 did it give?
A: 28.5 nM

Q: How did the IC50 turn out when `COc1cc2c(NC(C)C)c3ncccc3nc2cc1OCCCN1CCCC1` [Entry 122, 8-methoxy-N-(propan-2-yl)-7-[3-(pyrrolidin-1-yl)propoxy]benzo[b]1,5-naphthyridin-10-amine formate] was run?
A: 23.8 nM

Q: How did the IC50 turn out when `COc1cc2c(NCC(F)(F)F)c3c(nc2cc1OCCCN1CCCC1)CCC3` [Entry 50, 7-methoxy-6-[3-(pyrrolidin-1-yl)propoxy]-N-(2,2,2-trifluoroethyl)-1H,2H,3H-cyclopenta[b]quinolin-9-amine trifluoroacetate] was run?
A: 26 nM

Q: Which IC50 does the source give for `CCOc1c2ccccc2nc2cc(OCCCN3CCCC3)c(OC)cc12` [Entry 7, 9-ethoxy-2-methoxy-3-[3-(pyrrolidin-1-yl)propoxy]acridine formate] here?
A: 1400 nM

Q: `COc1cc2c(NC(C)C)c3cnccc3nc2cc1OCCCN1CCCC1` [Entry 121, 8-methoxy-N-(propan-2-yl)-7-[3-(pyrrolidin-1-yl)propoxy]benzo[b]1,6-naphthyridin-10-amine formate] was tested. Which IC50 did it give?
A: 64.2 nM

Q: With `CNc1c2ccccc2nc2cc(OCCCN3CCCC3)ccc12` [Entry 10, N-methyl-3-[3-(pyrrolidin-1-yl)propoxy]acridin-9-amine formate] as the compound, how does the IC50 read?
A: 56.7 nM

Q: Which IC50 does the source give for `COC(=O)CNc1c2ccccc2nc2cc(OCCCN3CCCC3)c(OC)cc12` [Entry 105, methyl 2-({2-methoxy-3-[3-(pyrrolidin-1-yl)propoxy]acridin-9-yl}amino)acetate formate] here?
A: 20.6 nM

Q: With `CNc1c2c(nc3cc(OCCCN4CCC(F)C4)c(OC)cc13)CCC2` (centres unmarked) [Entry 29, 6-[3-(3-fluoropyrrolidin-1-yl)propoxy]-7-methoxy-N-methyl-1H,2H,3H-cyclopenta[b]quinolin-9-amine] as the compound, how does the IC50 read?
A: 250 nM

Q: How did the IC50 turn out when `COCCNc1c2c(nc3cc(OCCCN4CCCC4)c(OC)cc13)CCC2` [Entry 38, 7-methoxy-N-(2-methoxyethyl)-6-[3-(pyrrolidin-1-yl)propoxy]-1H,2H,3H-cyclopenta[b]quinolin-9-amine formate] was run?
A: 16 nM

Q: For `COc1cc2c(NCC(C)(C)O)c3cccnc3nc2cc1OCCCN1CCCC1` [Entry 123, 1-({7-methoxy-8-[3-(pyrrolidin-1-yl)propoxy]benzo[b]1,8-naphthyridin-5-yl}amino)-2-methylpropan-2-ol formate], which IC50 is on record?
A: 251 nM

Q: With `COc1cc2c(Nc3ccccn3)c3c(nc2cc1OCCCN1CCCC1)CCC3` [Entry 40, N-{7-methoxy-6-[3-(pyrrolidin-1-yl)propoxy]-1H,2H,3H-cyclopenta[b]quinolin-9-yl}pyridin-2-amine formate] as the compound, how does the IC50 read?
A: 150 nM

Q: Which IC50 does the source give for `COc1cc2c(NC3CC3)c3c(nc2cc1OCCCN1CCCC1)CCC3` [Entry 31, N-cyclopropyl-7-methoxy-6-[3-(pyrrolidin-1-yl)propoxy]-1H,2H,3H-cyclopenta[b]quinolin-9-amine trifluoroacetate] here?
A: 17.5 nM

Q: For `COc1cc2cc3c(nc2cc1OCCCN1CCCC1)CCCC3` [Entry 17, 7-methoxy-6-[3-(pyrrolidin-1-yl)propoxy]-1,2,3,4-tetrahydroacridine formate], which IC50 is on record?
A: 510 nM

Q: How did the IC50 turn out when `CNc1c2ccccc2nc2cc(OCCCN3CCCC3)c(C)cc12` [Entry 11, N,2-dimethyl-3-[3-(pyrrolidin-1-yl)propoxy]acridin-9-amine formate] was run?
A: 1230 nM

Q: How did the IC50 turn out when `COc1cc2c(NC3CCOCC3)c3cc(C)ccc3nc2cc1OCCCN1CCCC1` [Entry 114, 2-methoxy-7-methyl-N-(oxan-4-yl)-3-[3-(pyrrolidin-1-yl)propoxy]acridin-9-amine formate] was run?
A: 54.3 nM

Q: With `CCN(CC)CCCOc1cc2nc3ccccc3c(NC)c2cc1OC` [Entry 14, 3-[3-(diethylamino)propoxy]-2-methoxy-N-methylacridin-9-amine trifluoroacetate] as the compound, how does the IC50 read?
A: 76 nM

Q: With `COc1cc2c(NC(C)C)c3c(nc2cc1OCCCN1CCCC1)CCC3` [Entry 19, 7-methoxy-N-(propan-2-yl)-6-[3-(pyrrolidin-1-yl)propoxy]-1H,2H,3H-cyclopenta[b]quinolin-9-amine formate] as the compound, how does the IC50 read?
A: 10 nM

Q: `COc1cc2c(N[C@H]3C[C@@H](O)C3)c3c(nc2cc1OCCCN1CCCC1)CCC3` [Entry 57, (1s,3s)-3-({7-methoxy-6-[3-(pyrrolidin-1-yl)propoxy]-1H,2H,3H-cyclopenta[b]quinolin-9-yl}amino)cyclobutan-1-ol formate] was tested. Which IC50 did it give?
A: 33.1 nM

Q: Which IC50 does the source give for `COc1cc2c(NCC3(C)CC3)c3c(nc2cc1OCCCN1CCCC1)CCC3` [Entry 44, 7-methoxy-N-[(1-methylcyclopropyl)methyl]-6-[3-(pyrrolidin-1-yl)propoxy]-1H,2H,3H-cyclopenta[b]quinolin-9-amine formate] here?
A: 19 nM

Source: US11254651B2, “Histone methyltransferase inhibitors” (GLOBAL BLOOD THERAPEUTICS, INC., priority 2016, dated 2022)
